Columns and labels:
mSPP1 = biological target: T1, mSPP1 (Mus musculus, UniProt Q9JI99); test: Substrate degradation by membrane fractions from HEK293 cells transfected with mSPP1; type: biochemical, murine
T1 construct: expressed in transfected cells; host or cells: HEK293 (human embryonic kidney), transient CaCl2 transfection with mSPP1-pcDNA3.1; membrane pellet (40,000 x g)
T1 sequence (Q9JI99 1-430): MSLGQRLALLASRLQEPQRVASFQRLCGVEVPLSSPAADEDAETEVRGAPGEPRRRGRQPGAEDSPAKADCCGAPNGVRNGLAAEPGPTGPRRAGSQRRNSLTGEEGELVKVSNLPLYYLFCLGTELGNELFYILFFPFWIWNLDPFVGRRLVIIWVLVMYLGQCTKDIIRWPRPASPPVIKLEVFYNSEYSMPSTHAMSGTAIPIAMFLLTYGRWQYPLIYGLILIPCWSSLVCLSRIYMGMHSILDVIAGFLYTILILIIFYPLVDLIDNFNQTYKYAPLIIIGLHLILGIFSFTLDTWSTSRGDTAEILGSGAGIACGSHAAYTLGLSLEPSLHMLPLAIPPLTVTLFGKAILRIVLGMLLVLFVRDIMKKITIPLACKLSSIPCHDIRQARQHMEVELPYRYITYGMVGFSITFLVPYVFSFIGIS

[1] = test system: Yeast (lbp1Δ::LEU2 sur2-2); test: Australifungin sensitivity, microtiter broth dilution assay in transformed yeast; type: cell-based
Protocol: Yeast cells defective in LBP1 shunt sphingolipid metabolites into phosphatidylethanolamine and phosphatidylcholine synthesis and become extremely sensitive to ceramide synthase inhibition by the antifungal agent, australifungin. To test whether the mouse SPP phosphatases can substitute for the function of LBP1, mSPP1pRS414-ADH, mSPP1bpRS414-ADH, or control vector (pRS414-ADH) were transformed into lbp1Δ::LEU2sur2-2 and sensitivity to australifungin was determined using a microtiter broth dilution assay. Transformants were incubated overnight in Synthetic Complete-Tryptophan (SC-TRP) Yeast Nitrogen Base medium (DIFCO) containing 2% glucose and 0.078% tryptophan-free supplement mixture (BIO101) at […]. Cells were inoculated at an OD600=0.001 (˜1×10^4 yeast cells/ml), and serial 2-fold dilutions of australifungin were made from 5 μg/ml. Growth after 48 h at 30° C. was measured by absorbance readings with a Rainbow spectrometer (TECAN).

[2] = test system: [3H]dihydrosphingosine-1-phosphate; test: Dihydrosphingosine-1-phosphate phosphohydrolase activity in microsomal membranes of transformed yeast; type: biochemical; conditions: yeast lbp1Δ::LEU2 sur2-2 expressing the protein, compared to the vector control
Excerpt: To test whether mSPP1 and mSPP1b encoded SPP phosphatases with properties similar to yeast Lbp1p, the mouse genes were subcloned into pRS414-ADH for expression of the genes in LBP1 mutants under the control of a strong, constitutive yeast promoter (ADH). The resulting plasmids were mSPP1pRS414-ADH and mSPP1bpRS414-ADH. Yeast (lbp1Δ::LEU2 sur2-2) were transformed with mSPP1pRS414-ADH, mSPP1bpRS414-ADH, or control vector (pRS414-ADH) using the lithium acetate/polyethylene glycol procedure and plated onto Synthetic Complete-Tryptophan (SC-TRP) Yeast Nitrogen Base medium (DIFCO) containing 1.5% agar, 2% glucose and 0.078% tryptophan-free supplement mixture (BIO101). Transformants were inoculated into SC-TRP media and incubated overnight at 30° C. to an OD600 of 1.0. […]
Microsomal membranes were collected by ultracentrifugation (100,000×g, 1 hour) and suspended in disruption buffer containing 20% glycerol. Dihydrosphingosine-1-phosphate phosphohydrolase activity was measured in 200 μl containing 50 mM KPO4 pH 7.2, 0.02% tergitol (NP-40), 2 μM [^3H]dihydrosphingosine-1-phosphate (40,000 cpm), 2 mM semicarbazide, and 0.3 to 5 μg of membrane protein. […] One ml of chloroform:methanol (3:2) was added and 50 μl of the chloroform layer was counted by liquid scintillation.

[3] = test system: [3H]dihydrosphingosine-1-phosphate; test: Dihydrosphingosine phosphate phosphohydrolase activity in membranes of transfected HEK293 cells; type: biochemical, Human; conditions: compared to vector transfected cells or mSPP1b transfected cells
Protocol: Microsomal membranes were collected by ultracentrifugation (100,000×g, 1 hour) and suspended in disruption buffer containing 20% glycerol. Dihydrosphingosine-1-phosphate phosphohydrolase activity was measured in 200 μl containing 50 mM KPO4 pH 7.2, 0.02% tergitol (NP-40), 2 μM [^3H]dihydrosphingosine-1-phosphate (40,000 cpm), 2 mM semicarbazide, and 0.3 to 5 μg of membrane protein. Following a 45 min incubation at 37° C., the assay was terminated with 200 μl 7 M NH4OH. One ml of chloroform:methanol (3:2) was added and 50 μl of the chloroform layer was counted by liquid scintillation.
Transfection-quality DNA was prepared for plasmids mSPP1-pcDNA3.1 and mSPP1b-pcDNA3.1 using endotoxin-free QIAGEN Maxi protocol (QIAGEN, Chatsworth, Calif.). Human embryonic kidney (HEK293) cells were maintained in high glucose Dulbecco's modified Eagle's medium (DMEM) containing 100 U/ml penicillin, 100 μg/ml streptomycin and 2 mM L-glutamine supplemented with 10% fetal bovine serum. Cells (1×10^6) were transfected with 20 μg of plasmid DNA by the CaCl2 procedure using a kit from SPECIALTY MEDIA (Lavallette, N.J.). Cells were harvested 48 hours after transfection with enzyme-free dissociation solution (SPECIALTY MEDIA, Lavallette, N.J.). […] Dihydrosphingosine phosphate phosphohydrolase activity was measured as described in Example 4.

NIH 3T3 fibroblasts = test: Enforced expression of mSPP1 in NIH 3T3 fibroblasts: survival and apoptosis; type: cell-based; conditions: enforced expression in NIH 3T3 fibroblasts

## CCCCCCCCCCCCC/C=C/[C@@H](O)[C@@H](N)COP(=O)(O)O [SPP, Sphingosine-1-phosphate]
mSPP1
  degradation of substrate by mSPP1 membrane fractions: markedly degraded

## CCCCCC[C@@H](C)C1=C(O)C(=O)[C@@H]2[C@H](O)[C@H](C)C[C@H](O)[C@H]2[C@]1(C)C(=O)/C=C\O [australifungin]
[1]; lbp1Δsur2-2 mutant expressing mSPP1, compared to vector transformed mutants, growth after 48 h at 30° C.
  increase in the MIC90 of australifungin: 64 fold
[1]; lbp1Δsur2-2 mutant expressing mSPP1b
  australifungin sensitivity: did not alter

## ceramide-1-phosphate
mSPP1
  degradation of substrate by mSPP1 membrane fractions: not

## lysophosphatidic acid
mSPP1
  degradation of substrate by mSPP1 membrane fractions: not

## phosphatidic acid
mSPP1
  degradation of substrate by mSPP1 membrane fractions: not

B1: mSPP1b: murine mSPP1b protein of SEQ ID NO:4, divergent 5′ end, lacks the activity of mSPP1; counterscreen or negative control (protein)
chain: MGEELGHCVQMRKSNERGKRFREQRVQRAQGKVSHHTKEEEETRVRQMSQGWEEKEYGYYLFCLGTELGNELFYILFFPFWIWNLDPFVGRRLVIIWVLVMYLGQCTKDIIRWPRPASPPVIKLEVFYNSEYSMPSTHAMSGTAIPIAMFLLTYGRWQYPLIYGLILIPCWSSLVCLSRIYMGMHSILDVIAGFLYTILILIIFYPLVDLIDNFNQTYKYAPLIIIGLHLILGIFSFTLDTWSTSRGDTAEILGSGAGIACGSHAAYTLGLSLEPSLHMLPLAIPPLTVTLFGKAILRIVLGMLLVLFVRDIMKKITIPLACKLSSIPCHDIRQARQHMEVELPYRYITYGMVGFSITFLVPYVFSFIGIS
[2]
  increase in membrane dihydrosphingosine-1-phosphate phosphohydrolase activity: same level of phosphohydrolase activity as control

B2: mSPP1: murine sphingosine-1-phosphate phosphatase, recombinant enzyme having the amino acid sequence of SEQ ID NO:3 (protein)
chain: T1 sequence (Q9JI99 1-430)
[2]
  increase in membrane dihydrosphingosine-1-phosphate phosphohydrolase activity: 3 to 4 fold
[3]
  increase in dihydrosphingosine phosphate phosphohydrolase activity: 4 to 5 fold
NIH 3T3 fibroblasts
  apoptosis: induced the characteristic traits of apoptosis
  cell survival: markedly decreased survival

Source: US6667163B2, “Polynucleotide sequences encoding mouse sphingosine-1-phosphate phosphatase” (Merck & Co., Inc., priority 2000, dated 2003)
